Experimental data as given in PubChem BioAssay (NCI).
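Assay format: 96-well plates, 48-hour exposure. TGI is the concentration that stops growth completely.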

Legend:
Assay in all cases: DTP human tumour cell line panel, 48 h
MOLT-4 leukemia = tested on: MOLT-4 leukemia
DMS 273 small cell lung = tested on: DMS 273 small cell lung
HL-60(TB) leukemia = tested on: HL-60(TB) leukemia
IGROV1 ovarian = tested on: IGROV1 ovarian
OVCAR-8 ovarian = tested on: OVCAR-8 ovarian
KM12 colon = tested on: KM12 colon
HOP-92 NSCLC = tested on: HOP-92 NSCLC
A498 renal = tested on: A498 renal
HCT-116 colon = tested on: HCT-116 colon
CCRF-CEM leukemia = tested on: CCRF-CEM leukemia
NCI-H460 lung = tested on: NCI-H460 lung
SNB-19 CNS = tested on: SNB-19 CNS
SF-295 CNS = tested on: SF-295 CNS
NCI-H23 lung = tested on: NCI-H23 lung
SK-OV-3 ovarian = tested on: SK-OV-3 ovarian
KM20L2 colon = tested on: KM20L2 colon
OVCAR-5 ovarian = tested on: OVCAR-5 ovarian
UACC-62 melanoma = tested on: UACC-62 melanoma
RXF 393 renal = tested on: RXF 393 renal
A549 NSCLC = tested on: A549 NSCLC
M14 melanoma = tested on: M14 melanoma
SK-MEL-28 melanoma = tested on: SK-MEL-28 melanoma
HT29 colon = tested on: HT29 colon
UACC-257 melanoma = tested on: UACC-257 melanoma
NCI-H522 lung = tested on: NCI-H522 lung
EKVX NSCLC = tested on: EKVX NSCLC
ACHN renal = tested on: ACHN renal
SNB-78 CNS = tested on: SNB-78 CNS
U251 CNS = tested on: U251 CNS
HOP-62 NSCLC = tested on: HOP-62 NSCLC
DMS 114 small cell lung = tested on: DMS 114 small cell lung
M19-MEL melanoma = tested on: M19-MEL melanoma
UO-31 renal = tested on: UO-31 renal
TK-10 renal = tested on: TK-10 renal
SR leukemia = tested on: SR leukemia
HCT-15 colon = tested on: HCT-15 colon
SF-539 CNS = tested on: SF-539 CNS
SK-MEL-5 melanoma = tested on: SK-MEL-5 melanoma
CAKI-1 renal = tested on: CAKI-1 renal
NCI-H226 lung = tested on: NCI-H226 lung
SF-268 CNS = tested on: SF-268 CNS
LXFL 529 NSCLC = tested on: LXFL 529 NSCLC
786-0 renal = tested on: 786-0 renal
OVCAR-3 ovarian = tested on: OVCAR-3 ovarian
SK-MEL-2 melanoma = tested on: SK-MEL-2 melanoma
MALME-3M melanoma = tested on: MALME-3M melanoma
HCC-2998 colon = tested on: HCC-2998 colon
OVCAR-4 ovarian = tested on: OVCAR-4 ovarian
DLD-1 colon = tested on: DLD-1 colon
SNB-75 CNS = tested on: SNB-75 CNS
COLO 205 colon = tested on: COLO 205 colon
K-562 leukemia = tested on: K-562 leukemia
SW-620 colon = tested on: SW-620 colon
RPMI-8226 leukemia = tested on: RPMI-8226 leukemia

## C=C(C)C1CC=C(C)[C@](O)(C2(O)C[C@H](C(=C)C)CC=C2C)C1 (some centres undefined)
MOLT-4 leukemia
  TGI: > 100 µM
DMS 273 small cell lung
  TGI: > 100 µM
HL-60(TB) leukemia
  TGI: > 100 µM
IGROV1 ovarian
  TGI: > 100 µM
OVCAR-8 ovarian
  TGI: > 100 µM
KM12 colon
  TGI: > 100 µM
HOP-92 NSCLC
  TGI: > 100 µM
A498 renal
  TGI: > 100 µM
HCT-116 colon
  TGI: > 100 µM
CCRF-CEM leukemia
  TGI: > 100 µM
NCI-H460 lung
  TGI: > 100 µM
SNB-19 CNS
  TGI: > 100 µM
SF-295 CNS
  TGI: > 100 µM
NCI-H23 lung
  TGI: > 100 µM
SK-OV-3 ovarian
  TGI: > 100 µM
KM20L2 colon
  TGI: > 100 µM
OVCAR-5 ovarian
  TGI: > 100 µM
UACC-62 melanoma
  TGI: > 100 µM
RXF 393 renal
  TGI: > 100 µM
A549 NSCLC
  TGI: > 100 µM
M14 melanoma
  TGI: > 100 µM
SK-MEL-28 melanoma
  TGI: > 100 µM
HT29 colon
  TGI: > 100 µM
UACC-257 melanoma
  TGI: > 100 µM
NCI-H522 lung
  TGI: > 100 µM
EKVX NSCLC
  TGI: > 100 µM
ACHN renal
  TGI: > 100 µM
SNB-78 CNS
  TGI: > 100 µM
U251 CNS
  TGI: > 100 µM
HOP-62 NSCLC
  TGI: > 100 µM
DMS 114 small cell lung
  TGI: > 100 µM
M19-MEL melanoma
  TGI: > 100 µM
UO-31 renal
  TGI: > 100 µM
TK-10 renal
  TGI: > 100 µM
SR leukemia
  TGI: > 100 µM

## COc1ccc(C(=O)OCC2OC(n3cnc4c(=S)nc[nH]c43)C(OC(=O)c3ccc(OC)cc3)C2OC(=O)c2ccc(OC)cc2)cc1 (centres undefined)
MOLT-4 leukemia
  TGI: > 100 µM
DMS 273 small cell lung
  TGI: > 100 µM
HL-60(TB) leukemia
  TGI: > 100 µM
IGROV1 ovarian
  TGI: > 100 µM
OVCAR-8 ovarian
  TGI: > 100 µM
KM12 colon
  TGI: > 100 µM
HCT-15 colon
  TGI: > 100 µM
HOP-92 NSCLC
  TGI: > 100 µM
HCT-116 colon
  TGI: > 100 µM
CCRF-CEM leukemia
  TGI: 93.3 µM
NCI-H460 lung
  TGI: > 100 µM
SNB-19 CNS
  TGI: > 100 µM
SF-295 CNS
  TGI: > 100 µM
NCI-H23 lung
  TGI: > 100 µM
SF-539 CNS
  TGI: > 100 µM
SK-MEL-5 melanoma
  TGI: > 100 µM
KM20L2 colon
  TGI: > 100 µM
OVCAR-5 ovarian
  TGI: > 100 µM
CAKI-1 renal
  TGI: > 100 µM
NCI-H226 lung
  TGI: > 100 µM
SF-268 CNS
  TGI: > 100 µM
LXFL 529 NSCLC
  TGI: > 100 µM
UACC-62 melanoma
  TGI: > 100 µM
786-0 renal
  TGI: > 100 µM
A549 NSCLC
  TGI: > 100 µM
OVCAR-3 ovarian
  TGI: > 100 µM
SK-MEL-2 melanoma
  TGI: > 100 µM
MALME-3M melanoma
  TGI: > 100 µM
M14 melanoma
  TGI: > 100 µM
SK-MEL-28 melanoma
  TGI: > 100 µM
HCC-2998 colon
  TGI: > 100 µM
OVCAR-4 ovarian
  TGI: > 100 µM
HT29 colon
  TGI: > 100 µM
UACC-257 melanoma
  TGI: > 100 µM
NCI-H522 lung
  TGI: 54.5 µM
DLD-1 colon
  TGI: > 100 µM
SNB-75 CNS
  TGI: 77 µM
ACHN renal
  TGI: > 100 µM
U251 CNS
  TGI: > 100 µM
HOP-62 NSCLC
  TGI: > 100 µM
DMS 114 small cell lung
  TGI: > 100 µM
M19-MEL melanoma
  TGI: > 100 µM
COLO 205 colon
  TGI: > 100 µM
UO-31 renal
  TGI: > 100 µM
K-562 leukemia
  TGI: > 100 µM
SW-620 colon
  TGI: > 100 µM
TK-10 renal
  TGI: > 100 µM
SR leukemia
  TGI: > 100 µM
RPMI-8226 leukemia
  TGI: > 100 µM
